PubChem BioAssay (NCI)
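How tested: cells in 96-well plates exposed to compound for 48 hours at five concentrations. GI50 is the concentration that inhibits growth by half. The concentration for full growth arrest is given as TGI.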

Experiments:
Experiment in all cases: NCI tumour cell line growth inhibition, 48 h
OVCAR-5 ovarian = test system: OVCAR-5 ovarian
SK-MEL-28 melanoma = test system: SK-MEL-28 melanoma
RPMI-8226 leukemia = test system: RPMI-8226 leukemia
DU-145 prostate = test system: DU-145 prostate
MOLT-4 leukemia = test system: MOLT-4 leukemia
UO-31 renal = test system: UO-31 renal
CCRF-CEM leukemia = test system: CCRF-CEM leukemia
HOP-92 NSCLC = test system: HOP-92 NSCLC
HCC-2998 colon = test system: HCC-2998 colon
TK-10 renal = test system: TK-10 renal
COLO 205 colon = test system: COLO 205 colon
UACC-257 melanoma = test system: UACC-257 melanoma
LOX IMVI melanoma = test system: LOX IMVI melanoma
SNB-19 CNS = test system: SNB-19 CNS
RXF 393 renal = test system: RXF 393 renal
SF-539 CNS = test system: SF-539 CNS
MDA-MB-231 breast = test system: MDA-MB-231 breast
BT-549 breast = test system: BT-549 breast
MALME-3M melanoma = test system: MALME-3M melanoma
NCI-H226 lung = test system: NCI-H226 lung
KM12 colon = test system: KM12 colon
NCI-H460 lung = test system: NCI-H460 lung
HT29 colon = test system: HT29 colon
T-47D breast = test system: T-47D breast
K-562 leukemia = test system: K-562 leukemia
OVCAR-3 ovarian = test system: OVCAR-3 ovarian
MDA-MB-435 = test system: MDA-MB-435
SK-OV-3 ovarian = test system: SK-OV-3 ovarian
OVCAR-8 ovarian = test system: OVCAR-8 ovarian
HCT-116 colon = test system: HCT-116 colon
SN12C renal = test system: SN12C renal
M14 melanoma = test system: M14 melanoma
CAKI-1 renal = test system: CAKI-1 renal
OVCAR-4 ovarian = test system: OVCAR-4 ovarian
PC-3 prostate = test system: PC-3 prostate
SF-268 CNS = test system: SF-268 CNS
SK-MEL-2 melanoma = test system: SK-MEL-2 melanoma
NCI-H23 lung = test system: NCI-H23 lung
EKVX NSCLC = test system: EKVX NSCLC
SNB-75 CNS = test system: SNB-75 CNS
HS 578T breast = test system: HS 578T breast
HCT-15 colon = test system: HCT-15 colon
NCI/ADR-RES ovarian = test system: NCI/ADR-RES ovarian
ACHN renal = test system: ACHN renal
SK-MEL-5 melanoma = test system: SK-MEL-5 melanoma
MCF7 breast = test system: MCF7 breast
SW-620 colon = test system: SW-620 colon
SR leukemia = test system: SR leukemia
A549 NSCLC = test system: A549 NSCLC
A498 renal = test system: A498 renal
HOP-62 NSCLC = test system: HOP-62 NSCLC
786-0 renal = test system: 786-0 renal
U251 CNS = test system: U251 CNS
NCI-H522 lung = test system: NCI-H522 lung
HL-60(TB) leukemia = test system: HL-60(TB) leukemia
UACC-62 melanoma = test system: UACC-62 melanoma
SF-295 CNS = test system: SF-295 CNS
IGROV1 ovarian = test system: IGROV1 ovarian

In the case of O=C(/C=C/c1ccc(Cl)cc1)c1ccc(Nc2nc(Nc3ccc(F)cc3)nc(Nc3ccc(F)cc3)n2)cc1, the GI50 (OVCAR-5 ovarian) is reported as over 100 µM, the TGI (OVCAR-5 ovarian) is reported as over 100 µM and the GI50 (SK-MEL-28 melanoma) is reported as 24.6 µM. For the same compound, the TGI (SK-MEL-28 melanoma) was 61.7 µM, the GI50 (RPMI-8226 leukemia) was 4.99 µM and the TGI (RPMI-8226 leukemia) was 26.3 µM. The GI50 (DU-145 prostate) was over 100 µM, the TGI (DU-145 prostate) was over 100 µM and the GI50 (MOLT-4 leukemia) was 24.5 µM. It also gave a TGI (MOLT-4 leukemia) of 98.7 µM, a GI50 (UO-31 renal) of 19.4 µM and a TGI (UO-31 renal) of over 100 µM. The GI50 (CCRF-CEM leukemia) was 31.9 µM, the TGI (CCRF-CEM leukemia) was over 100 µM and the GI50 (HOP-92 NSCLC) was 26.6 µM. For the same compound, the TGI (HOP-92 NSCLC) was over 100 µM, the GI50 (HCC-2998 colon) was 17.7 µM and the TGI (HCC-2998 colon) was 41.2 µM. It also gave a GI50 (TK-10 renal) of over 100 µM, a TGI (TK-10 renal) of over 100 µM and a GI50 (COLO 205 colon) of 16.7 µM. The TGI (COLO 205 colon) was 45.4 µM, the GI50 (UACC-257 melanoma) was over 100 µM and the TGI (UACC-257 melanoma) was over 100 µM. The GI50 (LOX IMVI melanoma) was 27.4 µM, the TGI (LOX IMVI melanoma) was 70.2 µM and the GI50 (SNB-19 CNS) was 94.1 µM. The TGI (SNB-19 CNS) was over 100 µM, the GI50 (RXF 393 renal) was 21.2 µM and the TGI (RXF 393 renal) was 46.1 µM. It also gave a GI50 (SF-539 CNS) of 24 µM, a TGI (SF-539 CNS) of 51.9 µM and a GI50 (MDA-MB-231 breast) of over 100 µM. The TGI (MDA-MB-231 breast) was over 100 µM, the GI50 (BT-549 breast) was 19 µM and the TGI (BT-549 breast) was 36.9 µM. For the same compound, the GI50 (MALME-3M melanoma) was over 100 µM, the TGI (MALME-3M melanoma) was over 100 µM and the GI50 (NCI-H226 lung) was 24.5 µM. The TGI (NCI-H226 lung) was 53.8 µM, the GI50 (KM12 colon) was 25.7 µM and the TGI (KM12 colon) was over 100 µM. The GI50 (NCI-H460 lung) was 38.9 µM, the TGI (NCI-H460 lung) was over 100 µM and the GI50 (HT29 colon) was 35.1 µM. The TGI (HT29 colon) was over 100 µM, the GI50 (T-47D breast) was 19.2 µM and the TGI (T-47D breast) was over 100 µM. For the same compound, the GI50 (K-562 leukemia) was 53.1 µM, the TGI (K-562 leukemia) was over 100 µM and the GI50 (OVCAR-3 ovarian) was 32.2 µM. It also gave a TGI (OVCAR-3 ovarian) of 89.8 µM, a GI50 (MDA-MB-435) of 23 µM and a TGI (MDA-MB-435) of 50 µM. The GI50 (SK-OV-3 ovarian) was 43.7 µM, the TGI (SK-OV-3 ovarian) was over 100 µM and the GI50 (OVCAR-8 ovarian) was 74.4 µM. It also gave a TGI (OVCAR-8 ovarian) of over 100 µM, a GI50 (HCT-116 colon) of 12.2 µM and a TGI (HCT-116 colon) of 25.5 µM. It also gave a GI50 (SN12C renal) of over 100 µM, a TGI (SN12C renal) of over 100 µM and a GI50 (M14 melanoma) of 20.7 µM. The TGI (M14 melanoma) was 42 µM, the GI50 (CAKI-1 renal) was 80.4 µM and the TGI (CAKI-1 renal) was over 100 µM. The GI50 (OVCAR-4 ovarian) was 65.7 µM, the TGI (OVCAR-4 ovarian) was over 100 µM and the GI50 (PC-3 prostate) was 41.1 µM. For the same compound, the TGI (PC-3 prostate) was over 100 µM, the GI50 (SF-268 CNS) was 56.1 µM and the TGI (SF-268 CNS) was over 100 µM. For the same compound, the GI50 (SK-MEL-2 melanoma) was 40.8 µM, the TGI (SK-MEL-2 melanoma) was over 100 µM and the GI50 (NCI-H23 lung) was 41 µM. It also gave a TGI (NCI-H23 lung) of over 100 µM, a GI50 (EKVX NSCLC) of 95.7 µM and a TGI (EKVX NSCLC) of over 100 µM. It also gave a GI50 (SNB-75 CNS) of 67.8 µM, a TGI (SNB-75 CNS) of over 100 µM and a GI50 (HS 578T breast) of 52.3 µM. The TGI (HS 578T breast) was over 100 µM, the GI50 (HCT-15 colon) was 53.7 µM and the TGI (HCT-15 colon) was over 100 µM. It also gave a GI50 (NCI/ADR-RES ovarian) of 43.9 µM, a TGI (NCI/ADR-RES ovarian) of over 100 µM and a GI50 (ACHN renal) of 72 µM. For the same compound, the TGI (ACHN renal) was over 100 µM, the GI50 (SK-MEL-5 melanoma) was 46.9 µM and the TGI (SK-MEL-5 melanoma) was over 100 µM. For the same compound, the GI50 (MCF7 breast) was 9.45 µM, the TGI (MCF7 breast) was over 100 µM and the GI50 (SW-620 colon) was 29.2 µM. The TGI (SW-620 colon) was 76.5 µM, the GI50 (SR leukemia) was 22.3 µM and the TGI (SR leukemia) was 74.3 µM. The GI50 (A549 NSCLC) was 49.9 µM, the TGI (A549 NSCLC) was over 100 µM and the GI50 (A498 renal) was 34.6 µM. For the same compound, the TGI (A498 renal) was 98.5 µM, the GI50 (HOP-62 NSCLC) was over 100 µM and the TGI (HOP-62 NSCLC) was over 100 µM. The GI50 (786-0 renal) was 23.1 µM, the TGI (786-0 renal) was 56.3 µM and the GI50 (U251 CNS) was 19.8 µM. The TGI (U251 CNS) was 41.6 µM, the GI50 (NCI-H522 lung) was 35.6 µM and the TGI (NCI-H522 lung) was over 100 µM. For the same compound, the GI50 (HL-60(TB) leukemia) was 39 µM, the TGI (HL-60(TB) leukemia) was over 100 µM and the GI50 (UACC-62 melanoma) was over 100 µM. For the same compound, the TGI (UACC-62 melanoma) was over 100 µM, the GI50 (SF-295 CNS) was 22.6 µM and the TGI (SF-295 CNS) was 58.5 µM. It also gave a GI50 (IGROV1 ovarian) of 13.7 µM and a TGI (IGROV1 ovarian) of 30.9 µM.
